The values below come from paper PMC6831611, “Proof-of-Concept Study of Drug Brain Permeability Between in Vivo Human Brain and an in Vitro iPSCs-Human Blood-Brain Barrier Model” (Scientific Reports, 2019).

For one series, the system named is human brain (BBB). To be noted: PET, cited from earlier work; for K1, rate constant for transfer from arterial plasma into brain: human brain; for cerebral uptake / brain distribution in human brain (in words): in vivo, ref S1 Table 1.
The subject of another series is iPSC-hBBB monolayer. As to the kind of experiment: Apparent permeability (Papp A to B) across the in vitro iPSC-hBBB model. To be noted: iPSC-hBBB model, PappAB. The protocol: (§1) On day before the co-culture establishment, rat glial cells (2 × 10^4 cells) isolated as described previously[6] were plated on 12 wells plate (Costar) in glial specific medium. After 24 hours, hiPSC-BECs (6 × 10^4cells) were plated on the upper side of a collagen-coated polyester Transwell membrane (Costar, pore size 0.4 µm; diameter 12 mm; insert growth area 1 cm^2) in 0.5 mL of endothelial medium.
(§2) Experiments were performed in triplicate for each compound.
(§3) For LC-MS/MS a sample aliquot (transfer buffer) was diluted by half with acetonitrile and then, 10 μL of this solution was injected into the analytical equipment made up a Liquid Chromatography system coupled to a triple quadrupole mass spectrometer Thermofisher TS Quantum Discovery or Waters Quattro Premier XE equipped with a electrospray ionization source. System control and data processing were carried out using Xcalibur or Masslynx software. The chromatographic separation was performed on a Waters ACQUITY UPLC BEH C18 column (2.1 mm × 50 mm, 1.7 μm) at 60 °C. A gradient of two solvent mixtures was delivered at 0.3 mL/min or 0.5 mL/min according to the analytical system. Solvent A comprised 0.1% formic acid in ammonium acetate (5 mM) and solvent B, 0.1% formic acid in acetonitrile. Molecules were ionized in positive mode. Multiple reaction monitoring mode was used for compounds quantification. For all tested compounds, a linear gradient of mobile phase A and B was optimized. Linearity of the response was verified in the range 0.05 to 5 µM through 3 experiments to be able to measure low passage. Quantification was carried out using standard calibration curve and quality control samples prepared with blank matrix (transfer buffer/acetonitrile; 1/1; v/v) spiked with compounds.

Series [1] concerns in vitro primary cell-based rat BBB model. As to the kind of experiment: Apparent permeability in the in vitro primary cell-based rat BBB model. Conditions: in vitro cell based rat BBB model vs iPSC-hBBB model. An excerpt: We previously described an in vitro primary cell-based rat BBB model with relevant features of the in vivo rat BBB[6]. We therefore analyzed correlatively the permeability of a set of compounds obtained using the in vitro iPSC-hBBB model and the in vitro cell based rat BBB model.

For series [2], the system named is ABC transporters (P-gp) in the iPSC-hBBB model.
Experimental: A known P-gp substrate was used to assess the asymmetry index of the iPSC- hBBB model.
The integrity of iPSC-derived human BBB model was determined by assessment of radiolabelled sucrose permeability as a paracellular marker. The transwells with hiPSC-BECs monolayers were transferred to new 12 well plates. […] After 1 hour of incubation at 37 °C with gentle rotation, 100 µL of transfer buffer from both A and B compartments were collected and counted by scintillation. The Papp value was calculated as followed: Papp=dQ/dTXAXC0 where dQ/dT is the amount of compound transported per time point; A is the membrane surface area of the insert; and Co is the donor concentration at the time point. Data were presented as the average ± SD from three monolayers. […] The propranolol permeability was also tested using the same protocol with an apical tested dose about 1 µCi/mL (48 nM) of [^3H]propranolol in transfer buffer. […] After checking the cell monolayer integrity, the monolayers were transferred to new plates. The buffer (150 mM NaCl, 5.2 mM KCl, 2.2 mM CaCl2, 0.2 mM MgCl2, 6 mM NaHCO3, 2.8 mM glucose and 5 mM Hepes) was added: 1.5 mL to the basal chamber (B) and 0.5 mL to the apical chamber (A). Experiments were performed in triplicate for each compound. […] After 60 min, aliquots were removed from the acceptor and basal chambers for drug-concentration determination by LC-MS/MS.
Series [3] concerns ABC transporters in the in vitro primary rat cell based BBB model.
A short description of series [4]: Apparent permeability (Papp A to B) across the in vitro iPSC-hBBB model. To be noted: human. The protocol: as §1, §2, §3
A further series has as its system ABC transporters. Briefly: in vitro. Conditions: rat.
For another series, the system named is ABC transporters (P-gp). Briefly: in vitro. Conditions: human, PappBA/PappAB efflux ratio (ER).

Entries after “also recorded” stand apart in the source; their conditions may differ. Where two headings read alike, the source gives them in different places.

As to `COC[C@H]1CN(c2ccc(OCC[C@@H](O)C(F)(F)F)cc2)C(=O)O1` [befloxatone], in the series with human brain (BBB) (ref unpublished data), the “K1, rate constant for transfer from arterial plasma into brain” value (from here on “K1, rate constant for transfer”) is listed as 0.20 mL.cm-3.min-1. In addition, the “cerebral uptake / brain distribution in human brain (in words)” value with human brain (BBB) is “high cerebral uptake”. Also, in the series on iPSC-hBBB monolayer, the “in vitro permeability across the iPSC-hBBB model (in words)” value is given as “high permeability”.

For `Cn1c(=O)c2c(ncn2C)n(C)c1=O` [caffeine], the “permeability in the rat BBB model compared with the iPSC-hBBB model (in words)” value in series [1] is given as “higher”.

In the case of `COc1ccc2c(c1)[C@]13CCCC[C@@H]1[C@H](C2)N(C)CC3` [dextromethorphan], the “permeability in the rat BBB model compared with the iPSC-hBBB model (in words)” value in series [1] is “higher”.

On to `C#Cc1cccc(Nc2ncnc3cc(OCCOC)c(OCCOC)cc23)c1` [erlotinib], for which the “ABC transporter substrate / interaction (in words)” value is given as “not in the in vitro iPSC-hBBB model” in series [2] and “apparently an ABC transporter substrate” in series [3]. Further, the “K1, rate constant for transfer” value in the series on human brain (BBB) was 0.02 mL.cm-3.min-1. Further, the “cerebral uptake / brain distribution in human brain (in words)” value in the series with human brain (BBB) was “low cerebral uptake”. In addition, in the series with iPSC-hBBB monolayer, the “in vitro permeability across the iPSC-hBBB model (in words)” value is recorded as “high permeability”.

Regarding `CN(C)C(=O)C(CCN1CCC(O)(c2ccc(Cl)cc2)CC1)(c1ccccc1)c1ccccc1` [loperamide], the “ABC transporter substrate / interaction (in words)” value in series [2] is given as “likely to be also ABC transporter substrates; also recorded: apparently interacted with ABC transporters”. Further, the “permeability in the rat BBB model compared with the iPSC-hBBB model (in words)” value in series [1] is “higher”. In the series with human brain (BBB), the “K1, rate constant for transfer” value is given as 0.002 mL.cm-3.min-1. The “in vitro permeability across the iPSC-hBBB model (in words)” value in the series with iPSC-hBBB monolayer is reported as “low apparent permeability”.

`CC(C)NCC(O)COc1cccc2ccccc12` (stereo not shown) [propranolol]: the Papp A→B at 1 h in series [4] turned out to be 21.7 ± 3.1 ×10⁻⁶ cm/s.

In the case of `CCN1CCC[C@H]1CNC(=O)c1c(O)c(Cl)cc(Cl)c1OC` [raclopride], in the series with human brain (BBB), the “K1, rate constant for transfer” value is 0.09 mL.cm-3.min-1.

Turning to `CC[C@]1(O)C[C@@H]2CN(CCc3c([nH]c4ccccc34)[C@@](C(=O)OC)(c3cc4c(cc3OC)N(C)[C@H]3[C@@](O)(C(=O)OC)[C@H](OC(C)=O)[C@]5(CC)C=CCN6CC[C@]43[C@@H]65)C2)C1` [vinblastine], the efflux ratio in the series with ABC transporters is at least 1.25. Further, in series [2], the “ABC transporter substrate / interaction (in words)” value was “likely to be also ABC transporter substrates”. In addition, the efflux ratio at 60 min in the series on ABC transporters (P-gp) worked out at 1.55 ± 0.4.
